Laboratory results published in ChEMBL document CHEMBL1153677, “A novel series of 2-aminotetralins with high affinity and selectivity for the dopamine D3 receptor” (Bioorg Med Chem Lett, 1997).

Assays:
D(2) dopamine receptor = D(2) dopamine receptor (Homo sapiens, UniProt P14416); assay: Displacement of [125I]iodosulpiride from human Dopamine receptor D2 expressed in CHO cells; assay type: cell-based
D(3) dopamine receptor = D(3) dopamine receptor (Homo sapiens, UniProt P35462); assay: Displacement of [125I]iodosulpiride from human Dopamine receptor D3 expressed in CHO cells; assay type: cell-based
[1] = target: T1, 5-hydroxytryptamine receptor 1A (Mus musculus, UniProt Q64264); assay: Ability to displace [125I]iodosulpiride from 5-hydroxytryptamine 1A receptor
T1 sequence (Q64264 whole entry): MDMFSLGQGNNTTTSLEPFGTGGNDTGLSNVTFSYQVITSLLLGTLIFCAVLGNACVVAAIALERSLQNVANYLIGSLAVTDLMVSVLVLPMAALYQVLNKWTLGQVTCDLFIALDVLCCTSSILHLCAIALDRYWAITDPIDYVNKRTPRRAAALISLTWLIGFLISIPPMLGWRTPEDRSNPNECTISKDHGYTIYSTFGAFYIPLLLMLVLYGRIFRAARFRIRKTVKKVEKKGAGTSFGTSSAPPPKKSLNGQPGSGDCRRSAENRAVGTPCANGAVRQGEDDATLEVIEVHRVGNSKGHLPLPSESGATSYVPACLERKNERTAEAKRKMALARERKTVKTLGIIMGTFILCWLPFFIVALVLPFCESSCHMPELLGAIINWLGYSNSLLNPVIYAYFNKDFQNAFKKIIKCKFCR

Chain of D(2) dopamine receptor (P14416 whole entry): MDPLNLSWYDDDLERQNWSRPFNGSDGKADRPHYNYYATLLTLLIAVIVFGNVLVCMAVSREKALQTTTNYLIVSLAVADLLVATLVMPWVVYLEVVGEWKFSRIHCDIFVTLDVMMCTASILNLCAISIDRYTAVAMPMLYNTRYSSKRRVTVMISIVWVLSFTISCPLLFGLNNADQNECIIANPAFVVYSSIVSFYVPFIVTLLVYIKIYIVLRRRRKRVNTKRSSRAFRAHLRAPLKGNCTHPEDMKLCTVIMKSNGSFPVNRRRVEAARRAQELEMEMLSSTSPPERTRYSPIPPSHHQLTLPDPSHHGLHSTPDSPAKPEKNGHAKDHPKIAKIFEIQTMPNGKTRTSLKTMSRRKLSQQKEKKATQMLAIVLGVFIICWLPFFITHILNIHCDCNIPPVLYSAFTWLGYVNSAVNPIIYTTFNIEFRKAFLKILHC
Chain of D(3) dopamine receptor (P35462 whole entry): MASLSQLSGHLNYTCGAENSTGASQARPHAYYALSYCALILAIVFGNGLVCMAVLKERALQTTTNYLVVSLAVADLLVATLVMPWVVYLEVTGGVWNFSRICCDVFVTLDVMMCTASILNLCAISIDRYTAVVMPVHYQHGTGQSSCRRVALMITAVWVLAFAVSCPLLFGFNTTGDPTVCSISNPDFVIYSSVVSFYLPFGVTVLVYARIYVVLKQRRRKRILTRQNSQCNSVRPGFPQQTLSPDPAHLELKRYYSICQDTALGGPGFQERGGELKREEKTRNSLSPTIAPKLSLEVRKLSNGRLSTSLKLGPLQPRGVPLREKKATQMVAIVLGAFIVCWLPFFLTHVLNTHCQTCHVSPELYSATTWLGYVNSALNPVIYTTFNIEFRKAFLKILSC

## CCCN(CCCCNC(=O)c1ccc(-c2ccccc2)cc1)C1CCc2c(cccc2OS(C)(=O)=O)C1 (stereo not given)
D(2) dopamine receptor
  Ki: 251 nM
D(3) dopamine receptor
  Ki: 1.26 nM

## COc1ccccc1N1CCN(CCCCNC(=O)c2ccc(-c3ccc(C(C)=O)cc3)cc2)CC1
[1]
  Ki: 3.16 nM

## CCCN(CCCCNC(=O)c1ccc(-c2ccccc2)cc1)C1CCc2c(C#N)cccc2C1 (stereo not given)
D(2) dopamine receptor
  Ki: 100 nM
D(3) dopamine receptor
  Ki: 0.501 nM

## CCCN(CCCCNC(=O)c1ccc(-c2ccccc2)cc1)C1CCc2c(Cl)cccc2C1 (stereo not given)
D(2) dopamine receptor
  Ki: 398 nM
D(3) dopamine receptor
  Ki: 1.58 nM

## CCCN(CCCCNC(=O)c1ccc(-c2ccccc2)cc1)C1CCc2c(cccc2OS(=O)(=O)C(F)(F)F)C1 (stereo not given)
D(2) dopamine receptor
  Ki: 398 nM
D(3) dopamine receptor
  Ki: 1.58 nM

## CCCN(CCCCNC(=O)c1ccc(-c2ccccc2)cc1)C1CCc2c(O)cccc2C1 (stereo not given)
D(2) dopamine receptor
  Ki: 25.1 nM
D(3) dopamine receptor
  Ki: 0.2 nM

## COc1cccc2c1CCC(N(C)CCCCNC(=O)c1ccc(-c3ccccc3)cc1)C2 (stereo not given)
D(2) dopamine receptor
  Ki: 316 nM
D(3) dopamine receptor
  Ki: 12.6 nM

## CN(CCCCNC(=O)c1ccc(-c2ccccc2)cc1)C1CCc2c(O)cccc2C1 (stereo not given)
D(2) dopamine receptor
  Ki: 126 nM
D(3) dopamine receptor
  Ki: 2.51 nM

## CCCN(CCCCNC(=O)c1ccc(-c2ccccc2)cc1)C1CCc2c(cccc2C(N)=O)C1 (stereo not given)
D(2) dopamine receptor
  Ki: 631 nM
D(3) dopamine receptor
  Ki: 3.98 nM

## CCCN(CCCCNC(=O)c1ccc(-c2ccccc2)cc1)C1CCc2c(Br)cccc2C1 (stereo not given)
D(2) dopamine receptor
  Ki: 251 nM
D(3) dopamine receptor
  Ki: 1.26 nM

## CCCN(CCCCNC(=O)c1ccc(-c2ccccc2)cc1)C1CCc2ccccc2C1 (stereo not given)
D(2) dopamine receptor
  Ki: 316 nM
D(3) dopamine receptor
  Ki: 1.58 nM

## CCCN(CCCCNC(=O)c1ccc(-c2ccccc2)cc1)C1CCc2c(cccc2OCC2CC2)C1 (stereo not given)
D(2) dopamine receptor
  Ki: 794 nM
D(3) dopamine receptor
  Ki: 2.51 nM

## CCCN(CCCCNC(=O)c1ccc(-c2ccccc2)cc1)C1CCc2c(cccc2OC)C1 (stereo not given)
D(2) dopamine receptor
  Ki: 126 nM
D(3) dopamine receptor
  Ki: 0.794 nM
